According to US20090099218A1, “SYNTHESIS OF NOVEL TUBULIN POLYMERIZATION INHIBITORS: BENZOYLPHENYLUREA (BPU) SULFUR ANALOGS” (priority 2007, published 2009):
pIC50: −log10 of the molar value. Values joined by “and” are separate entries in the source; they are usually repeats but may differ in a detail not shown here. Equal values may be shown once.

Assays:
Panc430 = experiment: MTT growth inhibition, pancreatic cell line Panc430; type: cell-based; conditions: for pIC50: MTT assay, 96 h treatment, average of three independent experiments
Method: (§1) Eight of these analogs 6d, 6h, 6n, 6g, 7b, 7d, 8g, and 8h were tested for their cytotoxicity in seven pancreatic cell lines ASPC1, Panc1, Panc203, Panc430, Pane 1005, MiaPaca2, and HS766T using MTT assay. Cells were trypsinized, seeded at 5×10^3 cells/well in 96-well plate and allowed to grow for 24 hours before the treatment with exponential increasing concentrations of drugs in the presence of 10% FBS. After a 96-hours period of treatment, 20 μl of MTT solution (5 mg/ml in PBS) were added to each well, and the plates were then incubated for 3 hours at 37° C. Medium was then replaced with 100 μl of DMSO per well. Plates were shaken and the optical density was measured at 570 nm using a multiwell plate reader (Bio-Rad, Model 550, Bio-Rad Inc., Hercules, Calif.). Each experiment was performed in triplicate for each drug concentration and was carried out independently at least 3 times. The IC50 value was defined as the concentration needed for a 50% reduction in the absorbance calculated based on the survival curves. Response to drug treatment was assessed by standardizing treatment groups to untreated controls. Compounds activity was compared with compound 1.
(§2) Table 2 (Growth Inhibition of Pancreatic Cancer Cell Lines by BPU and BPTU Analogues (IC50) a) compares the cytotoxicity of a series of new derivatives against a panel of seven pancreatic cancer cell lines, as determined by MTT assay. See, Mosmann, T., J. Immunol. Methods 65:55-63 (1983).

HS766 = experiment: MTT growth inhibition, pancreatic cell line HS766; type: cell-based; conditions: Homo sapiens, Hs 766; MTT assay, 96 h treatment; average of three independent experiments
Method: as §1, §2

[1] = In vivo dose-finding study; conditions: for toxicity: 20 mg/kg and 30 mg/kg twice per week i.p., 4 weeks, six mice; for remaining animals that lost >15% of their weight: 50 mg/kg thrice per week i.p.; for mice that died in the 3rd week: mouse, in vivo
Method: Both compounds were explored by the i.p. route in cohorts of six mice each, with a duration of treatment of 4 weeks. […] Therefore, 50 mg/kg twice per week was explored. […] Therefore, the dose was escalated to 50 mg/kg thrice per week. In the 6n and 7d groups, respectively, two and one of the mice died in the 3rd week, and three of four and four of five of the remaining animals lost >15% of their weight. Thus, for 28-day efficacy studies following an i.p. route, we selected 50 mg/kg twice a week for both compounds.

[2] = test system: pancreas cancer xenografts; experiment: In vivo growth inhibition of patient-derived pancreas cancer xenografts; set-up: species or system athymic nude mice; conditions: for average growth after 28 days of treatment (T/C): individual patient xenograft cases; for efficacy in case 194: case with the greatest expression of MAPT; for slopes of treated versus control group, all nine cases: integrated analysis of nine treatment groups; for efficacy in case 215: low MAPT-expressing case, docetaxel 30 mg/kg i.p. once a week for 2 weeks
Method: Six-week-old female athymic nude mice (Harlan) were used. The research protocol was approved by the Johns Hopkins University Animal Care and Use Committee, and animals were maintained in accordance to guidelines of the American Association of Laboratory Animal Care. Surgical non-diagnostic specimens from patients who had undergone surgery at the Johns Hopkins Hospital were implanted s.c. in one to two mice for each patient, with two small pieces per mouse (F1 generation). Tumors were grown to 1.5 cm^3 and then harvested, divided into small ˜3×3×3 mm pieces, and transplanted to another five mice, with two tumors per mouse (F2 generation). After a second growth passage, tumors were excised and propagated to cohorts of ≧20 mice. These groups constituted the F3, or treatment cohort. Tumors from this third mouse-to-mouse passage were allowed to grow to ˜200 mm3, at which time mice were randomized into three treatment groups, with five to six mice (10 evaluable tumors) in each group: control (vehicle), 6n (50 mg/kg i.p. twice per week), and 7d (50 mg/kg i.p. twice per week). Docetaxel treatment was given to selected groups at a dose of 30 mg/kg i.p. once a week for 2 weeks. Mice were monitored daily for signs of toxicity and were weighed thrice per week. Tumor size was evaluated twice per week by caliper measurements using the following formula: tumor volume=[length×width^2]/2. Relative tumor growth inhibition was calculated by relative tumor growth of treated mice divided by relative tumor growth of control mice from the onset of therapy (T/C).
To assess the treatment effect, a hierarchical linear regression model was used with random intercepts and fixed slopes. Based on the results of exploratory plots, the assumption of fixed effects for slopes seemed reasonable. This model allowed for mouse effects to be nested within patient effects so that the hierarchical structure is fully accounted for. Specifically, the following linear regression model was fitted: log(γiJt)=a1ijtimeijt+b2jtimeijt×trtij+βtime^2ijt+eijt where j indexes patient, i indexes mouse, and t indexes time; yijt is the percentage change in tumor volume (compared with day 0) in mouse i, which is a xenograft for patient j at time t; and trtij is treatment (1=treated, 0=control) received by mouse i, which is a xenograft for patient j. […] An intercept and main effect of treatment were not included in the model that makes two assumptions: (a) at time 0, the change from baseline is 0 (which is empirically true), and (b) at baseline, the treated and untreated curves intersect. The model was fit using Win-Bugs software that estimates models using a Markov chain Monte Carlo estimation procedure. A burn-in of 10,000 iterations was done, and then the chain was run for an additional 20,000 iterations, of which every 10th iteration was saved for inference. Several chains were run with different starting values to ensure convergence. No convergence issues arose. The fitted model was used to make inferences with respect to the treatment effect and to create fitted regression lines (rescaled on the Y-axis for clearer interpretation). Point estimates of variables of interest (e.g., expected difference in tumor volume between treated and control at 28 days) and 95% credible intervals were based on the mean of posterior distributions and the 2.5th and 97.5th quantiles of the posterior distribution, respectively. The comparisons between means and proportions obtained from the biological studies were done using Student's t-test and χ^2 method, respectively. ANOVA was used when three or more variables were compared.
Tumors from nine cases of pancreatic cancer were used to establish xenografts in nude mice, and the animals were treated with either vehicle, 6n, or 7d (FIG. 36A). The level of efficacy varied both between drugs and within cases treated with each drug. FIG. 37 provides an integrated summary of all data points obtained in the studies. […]

Row | Compound | pIC50 (Panc430) | increase in potency over 6m (Panc430; Panc430) [fold] | pIC50 (HS766) | toxicity [1] | remaining animals that lost >15% of their weight [1] | mice with a weight loss of 15% by the 4th week ([1]; 50 mg/kg twice per week i.p.) | mice that died in the 3rd week [1] | proportion of sensitive cases, above the median MAPT expression ([2]; 50 mg/kg i.p. twice per week) | proportion of sensitive cases, below the median MAPT expression ([2]; 50 mg/kg i.p. twice per week) | average growth after 28 days of treatment (T/C) ([2]; 50 mg/kg i.p. twice per week) | efficacy in case 194 [2] | efficacy compared with docetaxel ([2]; direct comparison in three cases) | slopes of treated versus control group, all nine cases [2] | efficacy in case 215 [2] | efficacy compared with erlotinib ([2]; same patient-derived xenografts) | increase in activity compared to 7c (Panc430; Panc430) [fold]
1 | O=C(NC(=O)c1ccccc1[N+](=O)[O-])Nc1ccc(Sc2ncc(Br)cn2)cc1 [Compound 6n, 1-[4-(5-Bromopyrimidin-2-ylsulfanyl)phenyl]-3-(2-nitrobenzoyl)-urea] | 7.05 | 111 | 7.06 | not associated with noticeable toxicity | three of four | One of six | two | 0 of 4 | 4 of 5 | ≤ 50% and 60% | inactive | at least as efficacious (if not better) than docetaxel | no statistical differences | particularly efficacious | superior to erlotinib | –
2 | Nc1ccccc1C(=O)NC(=O)Nc1ccc(Sc2ncc(Br)cn2)cc1 [Compound 7d] | 6.70 | – | 6.15 | not associated with noticeable toxicity | four of five | – | one | – | – | 43% and 59% | inactive | – | no statistical differences | particularly efficacious | – | > 50
